Drawing on article PMC7614683, “A small molecule PI3Kα activator for cardioprotection and neuroregeneration” (Nature, 2023), this text covers inhibition for one compound.

Experiment in all cases: SelectScreen Z-LYTE kinase activity assay (SI Table 6)
Format in all cases: biochemical

Assay [1] addresses protein kinases of the Z-LYTE panel (Homo sapiens, UniProt P10721). An outline of the steps:
(§1)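 Kinases in the SelectScreen panel (Adapta, LanthaScreen binding, Z-LYTE formats) were tested against compound at 1 μM. Separately, ATM (100 nM, 5 μM GST-p53, 1 mM ATP, 30 min, 30°C) and mTORC1 (50 nM, 15 μM 4E-BP1, 250 μM ATP, 3 h) were run with 200 μM compound. Those products were read on Phos-tag gels.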

For assay [2], the target named is T1, protein kinases of the Z-LYTE panel (Homo sapiens, UniProt Q13043).
T1 sequence (Q13043 1-487): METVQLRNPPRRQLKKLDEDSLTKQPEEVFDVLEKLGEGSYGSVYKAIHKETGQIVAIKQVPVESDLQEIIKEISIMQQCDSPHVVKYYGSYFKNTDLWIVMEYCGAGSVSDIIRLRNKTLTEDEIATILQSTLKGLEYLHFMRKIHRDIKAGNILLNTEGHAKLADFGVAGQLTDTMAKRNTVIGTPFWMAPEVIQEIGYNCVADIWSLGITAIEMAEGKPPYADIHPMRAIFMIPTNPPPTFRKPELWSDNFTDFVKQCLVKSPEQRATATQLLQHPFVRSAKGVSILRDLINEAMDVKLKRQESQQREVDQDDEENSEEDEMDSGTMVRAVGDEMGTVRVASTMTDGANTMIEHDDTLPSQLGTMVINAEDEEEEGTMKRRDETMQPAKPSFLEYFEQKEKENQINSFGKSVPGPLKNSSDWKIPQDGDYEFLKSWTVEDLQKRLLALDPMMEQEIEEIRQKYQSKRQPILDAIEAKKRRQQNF
An outline of the steps: as §1

The target in assay [3] is protein kinases of the Z-LYTE panel (Homo sapiens, UniProt P49840). The gist of the method: as §1
Assay [4] deals with protein kinases of the Z-LYTE panel (Homo sapiens, UniProt O60674). An outline of the steps: as §1
The target of assay [5] is protein kinases of the Z-LYTE panel (Homo sapiens, UniProt Q9UM73). An outline of the steps:
as §1

Assay [6] deals with T2, protein kinases of the Z-LYTE panel (Homo sapiens, UniProt P54762).
T2 sequence (P54762 18-984): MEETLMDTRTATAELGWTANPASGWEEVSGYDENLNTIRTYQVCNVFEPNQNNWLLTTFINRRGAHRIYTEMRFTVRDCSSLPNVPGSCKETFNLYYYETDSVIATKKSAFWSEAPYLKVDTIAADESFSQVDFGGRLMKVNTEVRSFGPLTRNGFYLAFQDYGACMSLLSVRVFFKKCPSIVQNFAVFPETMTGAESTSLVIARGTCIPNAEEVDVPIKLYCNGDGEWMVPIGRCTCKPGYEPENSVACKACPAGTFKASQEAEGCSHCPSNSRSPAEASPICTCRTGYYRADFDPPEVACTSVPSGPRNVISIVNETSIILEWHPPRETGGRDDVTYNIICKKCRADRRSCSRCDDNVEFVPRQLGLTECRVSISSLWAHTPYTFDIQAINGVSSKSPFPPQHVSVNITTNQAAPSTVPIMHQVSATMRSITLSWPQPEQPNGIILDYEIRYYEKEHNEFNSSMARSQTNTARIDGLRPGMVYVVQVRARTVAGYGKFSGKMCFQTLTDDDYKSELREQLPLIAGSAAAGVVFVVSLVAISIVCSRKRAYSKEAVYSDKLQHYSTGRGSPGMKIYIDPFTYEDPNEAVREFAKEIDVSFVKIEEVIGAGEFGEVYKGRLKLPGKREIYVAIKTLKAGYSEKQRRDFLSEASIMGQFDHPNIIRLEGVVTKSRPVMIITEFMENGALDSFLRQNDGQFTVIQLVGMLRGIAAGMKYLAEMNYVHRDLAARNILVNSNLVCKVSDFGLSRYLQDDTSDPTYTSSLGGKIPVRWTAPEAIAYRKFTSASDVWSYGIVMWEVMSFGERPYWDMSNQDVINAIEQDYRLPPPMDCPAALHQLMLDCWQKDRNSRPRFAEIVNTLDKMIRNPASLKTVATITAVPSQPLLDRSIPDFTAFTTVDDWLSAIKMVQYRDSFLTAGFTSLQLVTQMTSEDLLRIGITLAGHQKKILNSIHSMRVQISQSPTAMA
An outline of the steps:
as §1

For assay [7], the target named is protein kinases of the Z-LYTE panel (Homo sapiens, UniProt P07949). The gist of the method:
as §1

Like-named read-outs stand apart in the source and are kept apart here.

Sequence of protein kinases of the Z-LYTE panel (Homo sapiens, UniProt Q9UM73) (Q9UM73 19-1620): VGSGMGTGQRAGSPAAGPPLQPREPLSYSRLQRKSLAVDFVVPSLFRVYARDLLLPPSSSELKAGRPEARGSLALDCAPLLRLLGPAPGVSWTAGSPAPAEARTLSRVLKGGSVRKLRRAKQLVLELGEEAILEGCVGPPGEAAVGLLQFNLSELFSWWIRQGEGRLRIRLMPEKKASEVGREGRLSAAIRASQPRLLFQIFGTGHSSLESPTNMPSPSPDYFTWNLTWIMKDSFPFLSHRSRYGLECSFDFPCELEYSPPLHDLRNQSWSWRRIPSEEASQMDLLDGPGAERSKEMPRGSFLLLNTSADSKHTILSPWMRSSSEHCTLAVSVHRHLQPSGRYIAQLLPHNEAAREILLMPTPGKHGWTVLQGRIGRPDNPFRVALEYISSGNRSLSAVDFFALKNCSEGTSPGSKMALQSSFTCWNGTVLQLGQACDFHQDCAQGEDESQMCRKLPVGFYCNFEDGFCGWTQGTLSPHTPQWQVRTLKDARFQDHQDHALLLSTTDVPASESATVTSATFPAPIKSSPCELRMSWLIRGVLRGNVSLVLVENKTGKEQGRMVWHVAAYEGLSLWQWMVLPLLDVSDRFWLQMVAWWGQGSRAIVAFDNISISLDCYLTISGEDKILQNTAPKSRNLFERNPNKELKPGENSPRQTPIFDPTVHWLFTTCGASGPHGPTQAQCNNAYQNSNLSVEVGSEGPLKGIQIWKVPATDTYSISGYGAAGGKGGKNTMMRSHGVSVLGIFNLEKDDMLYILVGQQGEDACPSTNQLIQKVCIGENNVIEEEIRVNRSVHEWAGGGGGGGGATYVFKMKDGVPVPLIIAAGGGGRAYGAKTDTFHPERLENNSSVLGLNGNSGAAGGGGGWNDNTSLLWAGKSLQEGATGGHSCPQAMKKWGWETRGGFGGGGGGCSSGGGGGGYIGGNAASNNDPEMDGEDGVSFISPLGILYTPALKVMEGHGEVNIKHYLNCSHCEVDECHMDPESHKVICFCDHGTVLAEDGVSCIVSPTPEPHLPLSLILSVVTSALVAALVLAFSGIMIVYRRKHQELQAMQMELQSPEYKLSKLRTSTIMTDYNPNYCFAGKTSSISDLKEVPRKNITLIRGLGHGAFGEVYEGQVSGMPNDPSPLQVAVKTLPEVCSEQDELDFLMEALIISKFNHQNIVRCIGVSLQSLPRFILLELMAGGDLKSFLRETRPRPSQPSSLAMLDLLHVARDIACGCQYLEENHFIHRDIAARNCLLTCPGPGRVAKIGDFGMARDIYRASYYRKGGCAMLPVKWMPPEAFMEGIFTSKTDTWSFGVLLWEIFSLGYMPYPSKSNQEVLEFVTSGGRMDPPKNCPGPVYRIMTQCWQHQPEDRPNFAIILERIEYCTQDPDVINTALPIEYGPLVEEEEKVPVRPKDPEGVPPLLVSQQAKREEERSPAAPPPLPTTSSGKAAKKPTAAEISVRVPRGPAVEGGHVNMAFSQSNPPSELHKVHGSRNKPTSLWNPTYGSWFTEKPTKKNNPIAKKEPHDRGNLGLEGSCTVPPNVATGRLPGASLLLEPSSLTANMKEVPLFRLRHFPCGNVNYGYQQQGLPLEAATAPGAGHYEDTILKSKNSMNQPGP
Sequence of protein kinases of the Z-LYTE panel (Homo sapiens, UniProt O60674) (O60674 whole entry): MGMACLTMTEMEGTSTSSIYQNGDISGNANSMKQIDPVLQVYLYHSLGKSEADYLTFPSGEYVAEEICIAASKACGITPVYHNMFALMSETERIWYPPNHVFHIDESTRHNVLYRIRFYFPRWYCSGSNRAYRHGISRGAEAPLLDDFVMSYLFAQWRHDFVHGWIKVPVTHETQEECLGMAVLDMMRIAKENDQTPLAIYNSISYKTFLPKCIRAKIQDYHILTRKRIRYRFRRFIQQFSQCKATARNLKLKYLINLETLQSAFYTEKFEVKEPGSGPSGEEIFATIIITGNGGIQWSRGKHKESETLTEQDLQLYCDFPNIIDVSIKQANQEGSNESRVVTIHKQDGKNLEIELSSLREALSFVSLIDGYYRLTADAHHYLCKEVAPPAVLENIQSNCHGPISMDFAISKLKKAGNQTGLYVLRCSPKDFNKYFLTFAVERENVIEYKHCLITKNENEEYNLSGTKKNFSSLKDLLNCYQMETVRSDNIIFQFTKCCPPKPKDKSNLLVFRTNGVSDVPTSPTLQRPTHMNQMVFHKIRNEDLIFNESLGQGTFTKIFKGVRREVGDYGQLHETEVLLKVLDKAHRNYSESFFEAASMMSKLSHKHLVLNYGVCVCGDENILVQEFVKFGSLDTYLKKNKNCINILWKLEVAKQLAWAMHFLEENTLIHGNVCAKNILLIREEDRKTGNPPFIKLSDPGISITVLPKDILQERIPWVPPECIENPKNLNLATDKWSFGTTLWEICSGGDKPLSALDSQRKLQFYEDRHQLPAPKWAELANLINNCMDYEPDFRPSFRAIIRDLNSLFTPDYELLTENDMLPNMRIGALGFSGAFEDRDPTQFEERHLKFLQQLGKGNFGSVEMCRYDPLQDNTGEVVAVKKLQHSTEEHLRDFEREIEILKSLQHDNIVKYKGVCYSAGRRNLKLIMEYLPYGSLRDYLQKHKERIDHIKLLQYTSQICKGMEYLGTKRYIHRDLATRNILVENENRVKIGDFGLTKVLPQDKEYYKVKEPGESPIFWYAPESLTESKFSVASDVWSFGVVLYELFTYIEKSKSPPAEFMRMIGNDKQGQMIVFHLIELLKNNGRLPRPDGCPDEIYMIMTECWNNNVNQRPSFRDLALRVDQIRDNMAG
Sequence of protein kinases of the Z-LYTE panel (Homo sapiens, UniProt P07949) (P07949 29-1114): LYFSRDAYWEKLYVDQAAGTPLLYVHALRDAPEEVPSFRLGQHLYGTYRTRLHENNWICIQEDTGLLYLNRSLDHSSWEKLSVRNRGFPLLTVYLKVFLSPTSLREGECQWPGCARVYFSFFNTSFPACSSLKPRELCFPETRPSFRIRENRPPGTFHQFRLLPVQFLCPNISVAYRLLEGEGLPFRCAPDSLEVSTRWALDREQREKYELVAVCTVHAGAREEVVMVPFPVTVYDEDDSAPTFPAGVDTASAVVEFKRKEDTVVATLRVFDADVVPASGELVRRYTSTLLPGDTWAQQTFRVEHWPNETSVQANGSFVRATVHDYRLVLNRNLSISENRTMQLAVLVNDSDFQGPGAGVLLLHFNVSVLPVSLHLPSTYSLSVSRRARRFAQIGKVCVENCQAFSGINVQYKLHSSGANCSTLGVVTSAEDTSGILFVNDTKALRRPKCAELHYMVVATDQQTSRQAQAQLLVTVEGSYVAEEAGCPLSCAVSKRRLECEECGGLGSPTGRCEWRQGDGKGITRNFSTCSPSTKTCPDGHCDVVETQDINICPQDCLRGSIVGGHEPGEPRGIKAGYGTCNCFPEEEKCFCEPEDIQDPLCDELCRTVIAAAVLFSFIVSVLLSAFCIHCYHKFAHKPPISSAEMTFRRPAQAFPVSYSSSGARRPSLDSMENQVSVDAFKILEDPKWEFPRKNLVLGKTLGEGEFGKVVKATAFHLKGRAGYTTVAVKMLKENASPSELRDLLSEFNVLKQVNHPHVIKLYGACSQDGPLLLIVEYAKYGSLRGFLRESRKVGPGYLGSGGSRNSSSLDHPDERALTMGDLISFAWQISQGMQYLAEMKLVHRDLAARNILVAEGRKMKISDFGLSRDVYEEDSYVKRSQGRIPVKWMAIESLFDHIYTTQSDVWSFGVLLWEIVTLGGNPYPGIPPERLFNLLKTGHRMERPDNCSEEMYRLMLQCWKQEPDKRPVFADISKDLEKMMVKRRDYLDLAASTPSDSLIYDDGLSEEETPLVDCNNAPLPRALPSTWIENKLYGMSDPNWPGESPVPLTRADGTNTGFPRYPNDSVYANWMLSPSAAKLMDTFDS
Sequence of protein kinases of the Z-LYTE panel (Homo sapiens, UniProt P10721) (P10721 26-976): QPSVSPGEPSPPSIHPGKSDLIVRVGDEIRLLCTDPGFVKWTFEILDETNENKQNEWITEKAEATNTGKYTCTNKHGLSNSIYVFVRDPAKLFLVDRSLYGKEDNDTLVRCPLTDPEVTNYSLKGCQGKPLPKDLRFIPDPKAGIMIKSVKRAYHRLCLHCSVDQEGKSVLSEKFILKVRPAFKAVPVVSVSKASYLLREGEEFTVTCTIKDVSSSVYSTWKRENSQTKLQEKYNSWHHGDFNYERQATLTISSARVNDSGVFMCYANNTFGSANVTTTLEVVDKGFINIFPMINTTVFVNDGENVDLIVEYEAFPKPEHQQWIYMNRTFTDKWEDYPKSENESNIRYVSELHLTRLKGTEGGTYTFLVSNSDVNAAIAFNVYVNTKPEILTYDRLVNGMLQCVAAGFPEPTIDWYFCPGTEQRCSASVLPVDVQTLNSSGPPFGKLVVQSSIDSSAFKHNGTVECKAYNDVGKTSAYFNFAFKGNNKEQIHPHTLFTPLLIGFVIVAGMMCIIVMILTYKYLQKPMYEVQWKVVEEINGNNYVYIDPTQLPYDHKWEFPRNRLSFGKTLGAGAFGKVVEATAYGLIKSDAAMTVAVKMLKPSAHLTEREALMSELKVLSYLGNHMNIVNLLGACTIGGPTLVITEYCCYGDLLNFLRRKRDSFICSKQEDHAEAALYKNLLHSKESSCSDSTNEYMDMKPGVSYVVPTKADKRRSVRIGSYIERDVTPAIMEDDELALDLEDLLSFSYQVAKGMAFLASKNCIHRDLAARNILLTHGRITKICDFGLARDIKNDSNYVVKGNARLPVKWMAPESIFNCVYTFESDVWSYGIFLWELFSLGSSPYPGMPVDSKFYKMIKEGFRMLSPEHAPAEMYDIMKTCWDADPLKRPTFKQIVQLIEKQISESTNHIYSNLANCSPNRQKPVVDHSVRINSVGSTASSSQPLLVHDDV

What is called inhibition is the percentage by which the read-out fell short of the control. On to `CCN1CCN(c2ccc(Nc3cc(Nc4cccc5c4N(C(C)=O)CC5)ccn3)cc2)CC1` [Compound 1938], for which the inhibition at 1 µM in assay [1] (read-out: % Inhibition Point 1) stood at 6.43%; in assay [1] (read-out: % Inhibition Point 2), 8%; in assay [1] (read-out: % Inhibition mean), 7%; in assay [2] (read-out: % Inhibition Point 1), 4%; in assay [2] (read-out: % Inhibition Point 2), 1.07%; in assay [2] (read-out: % Inhibition mean), 2.46%. In addition, the inhibition at 1 µM in assay [3] (read-out: % Inhibition Point 1) worked out at 0.632%; in assay [3] (read-out: % Inhibition Point 2), 0.0257%; in assay [3] (read-out: % Inhibition mean), 0.329%; in assay [4] (read-out: % Inhibition Point 1), 6.6%; in assay [4] (read-out: % Inhibition Point 2) it was 9%; in assay [4] (read-out: % Inhibition mean), 8%. The inhibition at 1 µM was 11% in assay [5] (read-out: % Inhibition Point 1); 15% in assay [5] (read-out: % Inhibition Point 2); 13% in assay [5] (read-out: % Inhibition mean); 11% in assay [6] (read-out: % Inhibition Point 1); 11% in assay [6] (read-out: % Inhibition Point 2); 11% in assay [6] (read-out: % Inhibition mean). The inhibition at 1 µM in assay [7] (read-out: % Inhibition Point 1), in assay [7] (read-out: % Inhibition Point 2) and in assay [7] (read-out: % Inhibition mean) was 15% in each case.
